Experimental findings from US20230398101A1, “Co-agents as Therapy Against Anaerobic Pathogens” (priority 2022, published 2023) are described below.

Holding throughout (assay): Aerobic agar-dilution AST of facultative anaerobes (MIC, checkerboard FIC)
Holding throughout (format): cell-based

One experiment has as its system Staphylococcus aureus. Also on record: MIC (Table 10C, head prints neither MIC nor unit): unit not given beside the values. The following applies: for MIC (Table 10C, head prints neither MIC nor unit): strain (MR) 920516, aerobic; for MIC: Staphylococcus aureus.
A further experiment concerns Pseudomonas aeruginosa. Particulars: Pseudomonas aeruginosa, Pseudomonas aeruginosa 945748; read-out: MIC.
In a further experiment the test system is Acinetobacter baumannii. The following applies: Acinetobacter baumannii 919899, read-out: MIC.
The subject of another experiment is Enterococcus faecalis. Particulars: Enterococcus faecalis.

Turning to `CC(C)c1ccc(Cn2ccc3c4c(N)nc(NC5CC5)nc4ccc32)cc1` [Q], in the experiment with Staphylococcus aureus, the “MIC (Table 10C, head prints neither MIC nor unit)” value is listed as 32.

On to `Cc1cc(NS(=O)(=O)c2ccc(N)cc2)no1` [S, sulfamethoxazole], for which, in the experiment on Staphylococcus aureus, the “MIC (Table 10C, head prints neither MIC nor unit)” value is above 608.

In general, MIC refers to the smallest concentration in the dilution series that meets the test's criterion for growth inhibition. In the case of `C[C@@H](O)[C@H]1C(=O)N2C(C(=O)O)=C(S[C@@H]3CN[C@H](C(=O)N(C)C)C3)[C@H](C)[C@H]12` [meropenem], the MIC with Pseudomonas aeruginosa was 8 µg/mL; with Acinetobacter baumannii, above 64 µg/mL.

For `CCCCCCCCCCNCCN[C@@]1(C)C[C@H](O[C@H]2[C@H](Oc3c4cc5cc3Oc3ccc(cc3Cl)[C@@H](O)[C@@H](NC(=O)[C@@H](CC(C)C)NC)C(=O)N[C@@H](CC(N)=O)C(=O)N[C@H]5C(=O)N[C@H]3C(=O)N[C@H](C(=O)N[C@H](C(=O)O)c5cc(O)c(CNCP(=O)(O)O)c(O)c5-c5cc3ccc5O)[C@H](O)c3ccc(c(Cl)c3)O4)O[C@H](CO)[C@@H](O)[C@@H]2O)O[C@@H](C)[C@H]1O` [telavancin], the MIC in the experiment with Staphylococcus aureus was 0.25 µg/mL; in the experiment with Staphylococcus aureus (ATCC33591), 0.125 µg/mL.

As to `CN[C@H](CC(C)C)C(=O)N[C@H]1C(=O)N[C@@H](CC(N)=O)C(=O)N[C@H]2C(=O)N[C@H]3C(=O)N[C@H](C(=O)N[C@H](C(=O)O)c4cc(O)cc(O)c4-c4cc3ccc4O)[C@H](O)c3ccc(c(Cl)c3)Oc3cc2cc(c3O[C@@H]2O[C@H](CO)[C@@H](O)[C@H](O)[C@H]2O[C@H]2C[C@](C)(N)[C@H](O)[C@H](C)O2)Oc2ccc(cc2Cl)[C@H]1O` [vancomycin], the MIC in the experiment on Staphylococcus aureus is 1 µg/mL; in the experiment on Staphylococcus aureus (ATCC33591), 2 µg/mL; with Enterococcus faecalis it was 1 µg/mL; in the experiment with Enterococcus faecalis (ATCC51559), above 32 µg/mL.
